Measured values published in ChEMBL document CHEMBL1141927, “Quorum sensing in Vibrio harveyi: probing the specificity of the LuxP binding site” (Bioorg Med Chem Lett, 2005).

Assay: Effective concentration to induce a quorum signal in Vibrio harveyi(by binding Lux P protein)
Format: functional

| SMILES | EC50 |
| --- | --- |
| O=C(CO)[C@@H](O)[C@H](O)CO | 560 µM |
| CC(=O)C(=O)[C@H](O)[C@H](O)CO | 429 µM |
| CC(=O)C(=O)CCO | 27 µM |
| O=C1O[C@H]([C@@H](O)CO)C(O)=C1O [ASCORBIC ACID] | 737 µM |
| CC(=O)C(=O)[C@@H](O)CO | 0.044 µM |
| CC(=O)C(=O)[C@H](O)CO | 84 µM |
| O=C(CO)[C@H](O)[C@H](O)CO | 108 µM |
